For the assay, the target named is T1, human NTCP (Homo sapiens, UniProt Q14973).
T1 sequence (Q14973 1-349): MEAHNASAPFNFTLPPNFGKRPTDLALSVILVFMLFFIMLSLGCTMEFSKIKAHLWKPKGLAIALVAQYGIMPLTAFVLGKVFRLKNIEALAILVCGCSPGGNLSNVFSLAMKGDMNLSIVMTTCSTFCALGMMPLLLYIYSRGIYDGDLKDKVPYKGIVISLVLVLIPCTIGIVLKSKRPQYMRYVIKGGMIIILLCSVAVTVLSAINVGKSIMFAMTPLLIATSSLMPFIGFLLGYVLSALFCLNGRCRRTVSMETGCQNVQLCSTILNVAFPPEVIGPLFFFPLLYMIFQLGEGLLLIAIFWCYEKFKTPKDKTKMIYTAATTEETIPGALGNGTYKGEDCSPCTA
Put plainly: Screening taurocholate uptake assay (96-well, [14C]taurocholate, 10 µM drug). The note with it: for B-score functional assay: screening taurocholate uptake, 10 µM drug.

Setting [1] is: combined ranking of functional and binding screening assays.
[2] abbreviates: ranking over the functional and the binding screening assay.

Where a name gives a salt, the structure may show the parent alone. Where only a bound is given, the exact number is not on record here.

Regarding `CN(C)C(=O)Oc1ccc[n+](C)c1.[I-]` [Pyridostigmine iodide], the Ranking score under setting [1] turned out to be 1177.01. The compound also displayed a B-score functional assay (B-score) of 1.154.
Compound `CN1CC2c3ccccc3Oc3ccc(Cl)cc3C2C1` (stereo not shown) [Asenapine maleate] had a B-score functional assay of -0.488. The Ranking score under setting [2] turned out to be 127.491.
The compound `O=C(C1CCCCC1)N1CC(=O)N2CCc3ccccc3C2C1` (stereo not shown) [Praziquantel] showed a B-score functional assay of -0.749. In addition, the Ranking score under setting [2] is given as 262.237.
In turn, `COc1ccc2c(c1)c(CC(=O)O)c(C)n2C(=O)c1ccc(Cl)cc1` [Indomethacin] displayed a B-score functional assay of -1.11. Besides, under setting [2], the Ranking score is reported as 264.174.
Consider `O=C(O)Cc1ccc(-c2ccccc2)cc1` [Felbinac], for which the B-score functional assay is -1.207. Under setting [1], the Ranking score was found to be 476.874.
For `Cc1ncc([N+](=O)[O-])n1CC(O)CCl` (stereo not shown) [Ornidazole], the B-score functional assay is given as -1.861. The Ranking score under setting [2] came out at 260.803.
With `CC(C)Oc1ccc2c(=O)c(-c3ccccc3)coc2c1` [Ipriflavone], the B-score functional assay was 2.878. Besides, the Ranking score under setting [1] is reported as 535.848.
For `CN(CCCN1c2ccccc2CCc2ccccc21)CC(=O)c1ccc(Cl)cc1` [Lofepramine] the same measures were 0.81 and 479.183.
The corresponding values for `C#C[C@]1(O)CC[C@H]2[C@@H]3CCc4cc(OC)ccc4[C@H]3CC[C@@]21C` [Ethynylestradiol 3-methyl ether] are -0.011 and 552.584.
As to `COc1ccc(CCN2CCC(Nc3nc4ccccc4n3Cc3ccc(F)cc3)CC2)cc1` [Astemizole], the B-score functional assay is -0.026. This compound also displayed a Ranking score under setting [2] of 231.853.
`NCCc1c[nH]c2ccc(O)cc12` [Serotonin hydrochloride] showed a B-score functional assay of 0.952. The compound further showed a Ranking score under setting [2] of 107.778.
For `CCC(=O)OCC(=O)[C@@]1(OC(=O)CC)[C@H](C)C[C@H]2[C@H]3[C@H]([C@@H](O)C[C@@]21C)[C@@]1(C)C=CC(=O)C=C1C[C@H]3Cl` [Alclometasone dipropionate] the same measures were -2.188 and 175.417.
`C=C1CC[C@@]2(O)[C@H]3Cc4ccc(O)c5c4[C@@]2(CCN3CC2CC2)[C@H]1O5` [Nalmefene hydrochloride] displayed a B-score functional assay of 0.055. Also, the Ranking score under setting [1] was found to be 642.564.
`CCOc1ccc2ccccc2c1C(=O)N[C@@H]1C(=O)N2[C@@H]1SC(C)(C)[C@@H]2C(=O)O` [Nafcillin sodium salt monohydrate] returned a B-score functional assay of 0.036. The compound also yielded a Ranking score under setting [2] of 223.052.
Turning to `COC(=O)[C@@H]1[C@H]2C[C@H]3c4[nH]c5ccccc5c4CCN3C[C@@H]2CC[C@@H]1O` [Yohimbine hydrochloride], the B-score functional assay was -1.965. Further, under setting [2], the Ranking score worked out at 229.785.
As to `C[C@H](CCC(=O)O)[C@H]1CC[C@H]2[C@@H]3CC[C@@H]4C[C@H](O)CC[C@]4(C)[C@H]3CC[C@]12C` [litocholic acid], under “1280 drugs at 10 µM, TC uptake and Myrcludex B binding screens combined”, the “position among the hits of the screen (combined ranking of both screening assays)” value was not above 150.
The compound `CN(CCOc1ccc(CC2SC(=O)NC2=O)cc1)c1ccccn1.Cl` (stereo not shown) [Rosiglitazone Hydrochloride] displayed a B-score functional assay of -7.292. Further, under setting [2], the Ranking score stood at 31.1127.
`CNCC(O)c1ccc(O)cc1` (racemic) [(+,-)-Synephrine] yielded a B-score functional assay of -0.397. Further, under setting [1], the Ranking score came out at 485.351.
Regarding `CC[C@H]1OC(=O)[C@H](C)[C@@H](O[C@H]2C[C@@](C)(OC)[C@@H](O)[C@H](C)O2)[C@H](C)[C@@H](O[C@@H]2O[C@H](C)C[C@H](N(C)C)[C@H]2O)[C@](C)(O)C[C@@H](C)/C(=N\OCOCCOC)[C@H](C)[C@@H](O)[C@]1(C)O` [Roxithromycin], the B-score functional assay came out at 1.396. Further, the Ranking score under setting [2] came to 275.763.
With `CCCc1ncc(C[n+]2ccccc2C)c(N)n1` [Amprolium hydrochloride], the B-score functional assay is listed as -0.209. Also, under setting [2], the Ranking score turned out to be 254.142.
In turn, `C=C1c2cccc(O)c2C(=O)C2=C(O)[C@]3(O)C(=O)C(C(N)=O)=C(O)[C@@H](N(C)C)[C@@H]3[C@@H](O)[C@H]12` [Methacycline hydrochloride] displayed a B-score functional assay of 0.118. For the same compound, under setting [2], the Ranking score was 244.434.
`Clc1ccc(COC(Cn2ccnc2)c2ccc(Cl)cc2Cl)cc1` (stereo not shown) [Econazole nitrate] came in with a B-score functional assay of -2.794. Moreover, the Ranking score under setting [2] is 155.949.
`COc1ccc(OC)c(C(O)C(C)N)c1` (stereo not shown) [Methoxamine hydrochloride] yielded a B-score functional assay of -0.662. For the same compound, the Ranking score under setting [1] was 647.236.
Take `C=CC[C@]1(O)CC[C@H]2[C@@H]3CCC4=CC(=O)CCC4=C3C=C[C@@]21C` [Altrenogest]: the B-score functional assay turned out to be 0.332. Also, the Ranking score under setting [1] was found to be 607.028.
`NC(=O)c1cnccn1` [Pyrazinamide]: the B-score functional assay is 0.065. Besides, under setting [2], the Ranking score was 244.119.
As for `CN(C)C(=O)Oc1cc(OC(=O)N(C)C)cc(C(O)CNC(C)(C)C)c1.Cl` (stereo not shown) [Bambuterol hydrochloride], the B-score functional assay was -0.006. Also, under setting [1], the Ranking score stood at 562.701.
Compound `C#C[C@]1(OC(C)=O)CC[C@H]2[C@@H]3CCC4=CC(=NO)CC[C@@H]4[C@H]3CC[C@@]21CC` (mixture of isomers) [Norgestimate] came in with a B-score functional assay of -2.463. This compound also returned a Ranking score under setting [2] of 95.4987.
Regarding `c1ccc2c(c1)OCC(C1=NCCN1)O2` (stereo not shown) [Idazoxan hydrochloride], the B-score functional assay is recorded as -2.926. For the same compound, the Ranking score under setting [2] stood at 198.728.
Compound `CC(=O)OC(C)C[N+](C)(C)C` (stereo not shown) [Methacholine chloride] displayed a B-score functional assay of 0.496. Further, under setting [1], the Ranking score came out at 628.097.
Compound `Cc1[nH]cnc1CN1CCc2c(c3ccccc3n2C)C1=O` [Alosetron hydrochloride] showed a B-score functional assay of -0.019. In addition, the Ranking score under setting [1] is reported as 562.783.
The corresponding values for `C[C@]12CC[C@@H]3c4ccc(O)cc4CC[C@H]3[C@@H]1C[C@@H](O)[C@@H]2O` [Estriol] are 0.325 and 589.644.
With `O=C1NCN(c2ccccc2)C12CCN(CCCC(c1ccc(F)cc1)c1ccc(F)cc1)CC2` [Fluspirilen], the B-score functional assay is listed as 0.19. The Ranking score under setting [1] is listed as 517.364.
As to `C#CCN(C)[C@H](C)Cc1ccccc1` [Selegiline hydrochloride], the B-score functional assay is recorded as -1.141. For the same compound, the Ranking score under setting [1] is 462.99.
Compound `Cc1cccc(Nc2ccncc2S(=O)(=O)NC(=O)NC(C)C)c1` [Torsemide] gave a B-score functional assay of -1.122. In addition, under setting [1], the Ranking score amounted to 467.226.
For `CCC1(CC)C(=O)C=CNC1=O` [Pyrithyldione] the same measures were 0.404 and 558.14.
In the case of `CN(C)CCC[C@@]1(c2ccc(F)cc2)OCc2cc(C#N)ccc21` [Escitalopram oxalate], the B-score functional assay was found to be 0.103. Under setting [1], the Ranking score came out at 540.899.
The compound `Cl.O=C1OC(CN2CCOCC2)CN1/N=C/c1ccc([N+](=O)[O-])o1` (stereo not shown) [Furaltadone hydrochloride] displayed a B-score functional assay of 0.718. The Ranking score under setting [1] came out at 592.766.
For the compound `CCOC(=O)c1ccc(N)cc1` [Benzocaine], the B-score functional assay is -1.326. Further, the Ranking score under setting [2] came out at 153.542.
The compound `CN(C)CCC(c1ccc(Br)cc1)c1ccccn1` (stereo not shown) [Brompheniramine maleate] returned a B-score functional assay of -0.661. The Ranking score under setting [1] was 520.776.
Take `CC(=O)[N-]S(=O)(=O)c1ccc(N)cc1.O.[Na+]` [Sulfacetamide sodic hydrate]: the B-score functional assay is -0.444. The Ranking score under setting [2] turned out to be 277.153.
`CC1(C)S[C@@H]2[C@H](NC(=O)[C@H](NC(=O)N3CCNC3=O)c3ccccc3)C(=O)N2[C@H]1C(=O)O` [Azlocillin sodium salt] registered a B-score functional assay of -0.407. Besides, under setting [2], the Ranking score is listed as 129.337.
In the case of `C[N+]1(C)CCCC(OC(=O)C(O)(c2ccccc2)c2ccccc2)C1` (stereo not shown) [Mepenzolate bromide], the B-score functional assay turned out to be 1.196. Further, under setting [1], the Ranking score is listed as 545.72.
As for `CN1CCN(CCCN2c3ccccc3Sc3ccc(Cl)cc32)CC1` [Prochlorperazine dimaleate], the B-score functional assay is on record as -4.76. Under setting [2], this compound came in with a Ranking score of 89.1291.
For the compound `Cc1cc(O)c(C(=O)N[C@@H](C(=O)N[C@@H]2C(=O)N3C(C(=O)O)=C(CSc4nnnn4C)CS[C@H]23)c2ccc(O)cc2)cn1` [Cefpiramide], the B-score functional assay is -1.403. This compound also gave a Ranking score under setting [2] of 261.897.
As to `CC(=O)Oc1ccccc1C(=O)Nc1ncc([N+](=O)[O-])s1` [Nitazoxanide], the B-score functional assay was -2.727. Besides, the Ranking score under setting [2] stood at 189.082.
`NC[C@H]1O[C@H](O[C@H]2[C@H](O)[C@@H](O[C@H]3O[C@H](CO)[C@@H](O)[C@H](N)[C@H]3O)[C@H](N)C[C@@H]2N)[C@H](N)C[C@@H]1O` [Tobramycin]: the B-score functional assay is -0.213. Also, the Ranking score under setting [1] came to 498.515.

The record behind these values is publication PMC5681660, “Reduced hepatitis B and D viral entry using clinically applied drugs as novel inhibitors of the bile acid transporter NTCP” (Scientific Reports, 2017).
